Consider nine molecules from publication PMC3071364, “Collagenolytic Activities of the Major Secreted Cathepsin L Peptidases Involved in the Virulence of the Helminth Pathogen, Fasciola hepatica” (PLoS Neglected Tropical Diseases, 2011).

The target of data set [1] is T1, FhCL2 (Fasciola hepatica, UniProt Q7JNQ8). Nature of the data set: Hydrolysis of fluorogenic peptidyl-NHMec substrates by recombinant FhCL2. In kind it is biochemical. The note with it: FhCL2 compared to FhCL1. On the procedure: (§1) Initial rates were obtained at 37°C over a range of substrate concentrations spanning Km values (0.2–200 µM) and at fixed enzyme concentrations (0.5–5 nM). Assays were performed in 100 mM sodium phosphate buffer (pH 6.0) containing 1 mM DTT and 1 mM EDTA. Rate constants for the inactivation of the Fasciola enzymes by Z-Phe-Ala-CHN2 and cathepsin K inhibitor II were determined from progress curves in the presence of substrate as previously described.

In data set [2] the target is T2, FhCL3 (Fasciola hepatica, UniProt B3TM67). Nature of the data set: Hydrolysis of fluorogenic peptidyl-NHMec substrates by recombinant FhCL3. In kind it is biochemical. As to conditions: for kcat/Km fold increase over FhCL1 / kcat/Km fold lower than FhCL1: FhCL3 compared to FhCL1; for fold better cleavage efficiency of FhCL3 than FhCL2: FhCL3 compared to FhCL2. On the procedure: as §1

A further data set deals with T3, FhCL1 (Fasciola hepatica, UniProt Q7JNQ9).
T3 construct: His tag (inferred from Ni-NTA purification) (C); made in house; host or cells: Pichia pastoris
The data set is described as follows: Inactivation of recombinant FhCL1 by inhibitors (progress curves in presence of substrate). The class given is biochemical. The note with it: for Ki: FhCL1. On the procedure:
as §1

Data set [3] has as its target T1, FhCL2. Nature of the data set: Inactivation of recombinant FhCL2 by inhibitors (progress curves in presence of substrate). The class given is biochemical. On the procedure:
as §1

Data set [4] concerns the target T2, FhCL3. Nature of the data set: Inactivation of recombinant FhCL3 by inhibitors (progress curves in presence of substrate). The class given is biochemical. The method, then:
as §1

The subject of data set [5] is Cc1cc(=O)oc2cc(NC(=O)[C@H](CCCCN)NC(=O)[C@H](CC(C)C)NC(=O)[C@@H](NC(=O)OC(C)(C)C)C(C)C)ccc12. Nature of the data set: Hydrolysis of fluorogenic peptidyl-NHMec substrates by recombinant FhCL1. In kind it is biochemical, Fasciola hepatica. As to conditions: other: FhCL1, pH 6.0, 37°C. The method, then: as §1
Data set [6] concerns Cc1cc(=O)oc2cc(NC(=O)[C@H](CCCNC(=N)N)NC(=O)[C@@H](NC(=O)[C@@H](NC(=O)OCc3ccccc3)C(C)C)C(C)C)ccc12. The data set is described as above. In kind it is biochemical, Fasciola hepatica. The note with it: other: FhCL1, pH 6.0, 37°C. The method, then:
as §1

Data set [7] concerns Cc1cc(=O)oc2cc(NC(=O)[C@H](CCCNC(=N)N)NC(=O)[C@@H]3CCCN3C(=O)CNC(=O)[C@H](C)NC(=O)OC(C)(C)C)ccc12. The description is as above. In kind it is biochemical, Fasciola hepatica. The note with it: other: FhCL1, pH 6.0, 37°C. On the procedure: as §1
Data set [8] has as its system Cc1cc(=O)oc2cc(NC(=O)[C@H](CCCNC(=N)N)NC(=O)[C@@H]3CCCN3C(=O)[C@@H](NC(=O)OC(C)(C)C)C(C)C)ccc12. The description is as above. In kind it is biochemical, Fasciola hepatica. The note with it: other: FhCL1, pH 6.0, 37°C. The method, then: as §1
Data set [9] deals with Cc1cc(=O)oc2cc(NC(=O)[C@H](CCCNC(=N)N)NC(=O)[C@H](CC(C)C)NC(=O)OCc3ccccc3)ccc12. The data set is described as above. The class given is biochemical, Fasciola hepatica. The note with it: other: FhCL1, pH 6.0, 37°C. On the procedure: as §1
The subject of data set [10] is Cc1cc(=O)oc2cc(NC(=O)[C@H](CCCNC(=N)N)NC(=O)[C@H](Cc3ccccc3)NC(=O)OCc3ccccc3)ccc12. The data set is described as above. In kind it is biochemical, Fasciola hepatica. The note with it: other: FhCL1, pH 6.0, 37°C. On the procedure:
as §1

Data set [11] concerns Cc1ccc(S(=O)(=O)NCC(=O)N2CCC[C@H]2C(=O)N[C@@H](CCCCN)C(=O)Nc2ccc3c(C)cc(=O)oc3c2)cc1. Described as above. The class given is biochemical, Fasciola hepatica. The note with it: other: FhCL1, pH 6.0, 37°C. The method, then:
as §1

Data set [12] relates to Cc1ccc(S(=O)(=O)NCC(=O)N2CCC[C@H]2C(=O)N[C@@H](CCCNC(=N)N)C(=O)Nc2ccc3c(C)cc(=O)oc3c2)cc1. The data set is described as above. The class given is biochemical, Fasciola hepatica. The note with it: other: FhCL1, pH 6.0, 37°C. The method, then:
as §1

Read-outs that look alike come from different tables or passages of the source. Where a SMILES comes first, the peptide text is derived from it. The star is where a group is joined. AMC = Cc1cc(=O)oc2cc(N*)ccc12; Tos = Cc1ccc(S(=O)(=O)*)cc1; Cbz = O=C(OCc1ccccc1)*; Boc = CC(C)(C)OC(=O)*

T3 sequence (Q7JNQ9 entry or part of it): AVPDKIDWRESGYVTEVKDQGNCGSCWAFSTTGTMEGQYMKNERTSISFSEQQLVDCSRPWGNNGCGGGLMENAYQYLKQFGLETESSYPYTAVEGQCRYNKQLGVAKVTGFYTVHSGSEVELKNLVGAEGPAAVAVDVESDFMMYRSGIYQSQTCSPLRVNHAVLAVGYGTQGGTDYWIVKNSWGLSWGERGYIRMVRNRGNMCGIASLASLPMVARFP
T1 sequence (Q7JNQ8 entry or part of it): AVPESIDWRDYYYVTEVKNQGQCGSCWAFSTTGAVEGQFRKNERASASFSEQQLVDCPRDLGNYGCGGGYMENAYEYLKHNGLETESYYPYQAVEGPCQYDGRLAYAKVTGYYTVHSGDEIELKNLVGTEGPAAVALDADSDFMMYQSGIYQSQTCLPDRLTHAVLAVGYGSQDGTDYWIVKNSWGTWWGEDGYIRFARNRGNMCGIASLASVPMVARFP
T2 sequence (B3TM67 entry or part of it): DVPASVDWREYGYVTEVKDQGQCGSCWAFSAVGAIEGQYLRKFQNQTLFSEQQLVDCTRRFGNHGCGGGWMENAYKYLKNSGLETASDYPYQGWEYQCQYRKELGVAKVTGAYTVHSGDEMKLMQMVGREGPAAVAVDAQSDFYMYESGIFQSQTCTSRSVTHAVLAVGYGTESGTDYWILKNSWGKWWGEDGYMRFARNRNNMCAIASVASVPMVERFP

For `Cc1cc(=O)oc2cc(NC(=O)[C@H](CCCN=C(N)N)NC(=O)[C@@H]3CCCN3C(=O)CNC(=O)[C@H](C)NC(=O)OC(C)(C)C)ccc12` [Boc-AGPR-NHMec, Boc-Ala-Gly-Pro-Arg-NHMec] (Boc-AGPR-{AMC}), the “kcat/Km fold increase over FhCL1” value on FhCL2 [1] worked out at 86 fold; at FhCL3 [2], 90 fold.

Turning to `Cc1cc(=O)oc2cc(NC(=O)[C@H](CCCN=C(N)N)NC(=O)[C@@H]3CCCN3C(=O)[C@@H](NC(=O)OC(C)(C)C)C(C)C)ccc12` [Boc-VPR-NHMec, Boc-Val-Pro-Arg-NHMec] (Boc-Val-Pro-Arg-{AMC}), the “kcat/Km fold increase over FhCL1” value is 44 fold at FhCL2 [1] and 3 fold on FhCL3 [2].

Regarding `CC(C)C[C@H](NC(=O)OCc1ccccc1)C(=O)NNC(=O)NNC(=O)[C@H](CC(C)C)NC(=O)[C@H](Cc1ccccc1)NC(=O)OC(C)(C)C` [Cathepsin K inhibitor II, Z-LNHNHCONHNHLF-Boc], the Ki is 12.2 nM at FhCL1 (Ki(app)), 0.63 nM at FhCL1 (Ki), 0.46 nM on FhCL2 [3] and 4.8 nM at FhCL2 [3] (read-out: Ki(app)). Also, on FhCL3 [4] (FhCL3 vs FhCL1), the “fold less effective against FhCL3 compared to FhCL1” value is reported as 14 fold. The “fold less effective against FhCL3 compared to FhCL2” value at FhCL3 [4] (FhCL3 vs FhCL2) is recorded as 20 fold.

Take `Cc1ccc(S(=O)(=O)NCC(=O)N2CCC[C@H]2C(=O)N[C@@H](CCCCN)C(=O)Nc2ccc3c(C)cc(=O)oc3c2)cc1` [Tos-GPK-NHMec, Tos-Gly-Pro-Lys-NHMec] (Tos-Gly-Pro-Lys-{AMC}): the “kcat/Km fold increase over FhCL1” value at FhCL2 [1] is on record as 22 fold. Also, on FhCL3 [2], the “kcat/Km fold increase over FhCL1” value is recorded as 60 fold and the “fold better cleavage efficiency of FhCL3 than FhCL2” value came to 3 fold.

In the case of `Cc1ccc(S(=O)(=O)NCC(=O)N2CCC[C@H]2C(=O)N[C@@H](CCCN=C(N)N)C(=O)Nc2ccc3c(C)cc(=O)oc3c2)cc1` [Tos-GPR-NHMec, Tos-Gly-Pro-Arg-NHMec] (Tos-Gly-Pro-Arg-{AMC}), at FhCL2 [1], the “kcat/Km fold increase over FhCL1” value was determined as 28 fold. Further, at FhCL3 [2], the “kcat/Km fold increase over FhCL1” value is 142 fold and the “fold better cleavage efficiency of FhCL3 than FhCL2” value was determined as 5 fold.

`Cc1cc(=O)oc2cc(NC(=O)[C@H](CCCN=C(N)N)NC(=O)[C@H](Cc3ccccc3)NC(=O)OCc3ccccc3)ccc12` [Z-FR-NHMec, Z-Phe-Arg-NHMec] (Cbz-Phe-Arg-{AMC}): the “kcat/Km fold lower than FhCL1” value worked out at 6 fold at FhCL2 [1] and 65 fold on FhCL3 [2].

In the case of `Cc1cc(=O)oc2cc(NC(=O)[C@H](CCCN=C(N)N)NC(=O)[C@H](CC(C)C)NC(=O)OCc3ccccc3)ccc12` [Z-LR-NHMec, Z-Leu-Arg-NHMec], the “kcat/Km fold lower than FhCL1” value on FhCL2 [1] was determined as 3.5 fold; on FhCL3 [2], 66 fold.

As for `C[C@H](NC(=O)[C@H](Cc1ccccc1)NC(=O)OCc1ccccc1)C(=O)C=[N+]=[N-]` [Z-Phe-Ala-CHN2], the “rate of inactivation of FhCL1, fold higher than that of FhCL2” value on FhCL1 (FhCL1 compared to FhCL2) was around 2 fold. Moreover, the Ki at FhCL1 (Ki(app)) was 31.4 nM; on FhCL1 (Ki), 1.62 nM; at FhCL2 [3] it was 5.32 nM; at FhCL2 [3] (read-out: Ki(app)), 55.2 nM. Further, the “rate of inactivation of FhCL3, fold lower” value at FhCL3 [4] (FhCL3 in contrast to FhCL1 and FhCL2) turned out to be 20 fold.

Broadly, the Km is the concentration of substrate that gives half-maximal velocity. One may read the kcat as the number of substrate molecules converted per active site and unit of time at saturation. As usually defined, the kcat/Km is the turnover number divided by the Michaelis constant. For the molecule FhCL1 (Fasciola hepatica), the Km in data set [5] stood at 2.5 µM; in data set [6] it was 2.84 µM; in [7], 18.8 µM; in [8], 22 µM; in data set [9], 1.09 µM; in data set [10] it was 1.9 µM. Also, the Km in [11] was 17.42 µM; in data set [12], 27.2 µM. For the same molecule, the kcat in data set [5] is 0.14 s⁻¹; in data set [6], 0.021 s⁻¹; in [7] it was 0.01 s⁻¹; in [8] it was 0.01 s⁻¹; in data set [9], 1.63 s⁻¹; in data set [10], 0.12 s⁻¹. Moreover, the kcat worked out at 0.01 s⁻¹ in data set [11] and 0.02 s⁻¹ in data set [12]. Further, the kcat/Km in [5] is 54300 M⁻¹ s⁻¹; in [6], 7460 M⁻¹ s⁻¹; in data set [7], 674 M⁻¹ s⁻¹; in data set [8] it was 479 M⁻¹ s⁻¹; in data set [9] it was 1.49e+06 M⁻¹ s⁻¹; in [10] it was 64900 M⁻¹ s⁻¹. Further, the kcat/Km stood at 612 M⁻¹ s⁻¹ in data set [11] and 672 M⁻¹ s⁻¹ in data set [12].
